# According to patent US20160264593A1 (priority 2013, published 2016):
# pIC50: −log10 of the molar value.
# Assays:
# in vivo [1] = conditions: male, rat, in vivo; for AUC(0-t): AUC0-t of 100; for AUC(0-inf): AUC0-∞ of 100; for Cmax: Cmax of 100; for Tmax: Tmax of 100; for MRT: MRT of 100; for half-life: T1/2 of 100
# Experimental: A pharmacokinetic study of 151 was conducted in SD rats. The study consisted of two dose levels at 1.0 (iv) and 10 (oral) mg/kg. The blood samples were collected at predetermined times from rats and centrifuged to separate plasma. An LC/MS/MS method was developed to determine the test article in plasma samples. The pharmacokinetic parameters of 151 following iv and oral administration to SD rats were calculated. The absolute bioavailability was evaluated.
# The final concentration of the test article was 0.2 mg/mL for iv administration and 1.0 mg/mL for oral administration. The test article solutions were administered using the most recent body weight for each animal.
# Blood (approximately 0.3 mL) were collected via orbital plexus into tubes containing sodium heparin at 0.25, 0.5, 1, 2, 3, 5, 7, 9, and 24 hours after oral administration; at 5 min, 15 min, 0.5, 1, 2, 3, 5, 7, 9 and 24 hours after iv administration. Samples were centrifuged for 5 min, at 4° C. with the centrifuge set at 11,000 rpm to separate plasma. The obtained plasma samples were stored frozen at a temperature of about −70° C. until analysis.
# Frozen plasma samples were thawed at room temperature and vortexed thoroughly. With a pipette, an aliquot (30 μL) of plasma was transferred into a 1.5-mL conical polypropylene tube. To each sample, 160 μL of acetonitrile were added. The samples were then vigorously vortex-mixed for 1 min. After centrifugation at 11000 rpm for 5 min, a 15 μL aliquot of the supernatant was injected into the LC-MS/MS system for analysis.
# Calibration standards were prepared by spiking 30 μL of the 151 standard solutions into 30 μL of heparinized blank rat plasma. The nominal standard concentrations in the standard curve were 1.00, 3.00, 10.0, 30.0, 100, 300, 1000 and 3000 ng/mL.
# The analysis was performed using an LC-MS/MS system consisting of the following components—HPLC system: Agilent 1200 series instrument consisting of G1312B vacuum degasser, G1322A binary pump, G1316B column oven and G1367D autosampler (Agilent, USA); MS/MS system: Agilent 6460 triple quadrupole mass spectrometer, equipped with an APCI Interface (Agilent, USA); Data system: MassHunter Software (Agilent, USA).
# Chromatographic separation was carried out at room temperature—Analytical column: C8 column (4.6 mm×150 mm I.D., 5 μm, Agilent, USA); Mobile phase: Acetonitrile:10 mM ammonium acetate (75:25, v/v); Flow rate: 0.80 mL/min; Injection volume: 15 μL.
# The mass spectrometer was operated in the positive mode. Ionization was performed applying the following parameters: gas temperature, 325° C.; vaporizer temperature, 350° C.; gas flow, 4 L/min; nebulizer, 20 psi; capillary voltage, 4500 V; corona current, 4 μA. 151 was detected using MRM of the transitions m/z 283→m/z 123 and m/z 283→m/z 251, simultaneously. The optimized collision energies of 25 eV and 10 eV were used for m/z 123 and m/z 251, respectively.
# Quantification was achieved by the external standard method. Concentrations of the test article were calculated using a weighted least-squares linear regression (W=1/x^2).
# The pharmacokinetic parameters were evaluated using WinNonlin version 5.3 (Pharsight Corp., Mountain View, Calif., USA), assuming a non-compartmental model for drug absorption and distribution. • AUC0-t is the area under the plasma concentration-time curve from time zero to last sampling time, calculated by the linear trapezoidal rule. • AUC0-∞ is the area under the plasma concentration-time curve from time zero extrapolating to infinity. • T1/2 is the elimination half-life associated with the terminal (log-linear) elimination phase, which is estimated via linear regression of time vs. log concentrations. • CL is the total body clearance. • Vss is the volume of distribution at steady-state.
# [2] = system: PP2A in circulating white blood cells; assay: Inhibition of PP2A in circulating white blood cells after slow iv 100; format: in vivo; conditions: rat
# [3] = Microsomal stability, rat microsomes; format: in vitro ADME; conditions: relative to verapamil
# [4] = Microsomal stability, monkey microsomes; format: in vitro ADME; conditions: relative to verapamil
# [5] = Microsomal stability, human microsomes; format: in vitro ADME; conditions: relative to verapamil
# human cancer cell lines = assay: IC50 for a broad spectrum of human cancer cell lines; format: cell-based
# U251 human GBM cells = conditions: 100 ip together with radiation, daily for 5 days x 3 courses; 6 months plus follow-up
# Experimental: The mechanism of potentiation is impairment of multiple steps in a DNA-damage repair process and inhibition of exit from mitosis. […] Mice bearing subcutaneous (sc) xenografts of U251 human GBM cells were treated with compound 100 intraperitoneally together with radiation, each given daily for 5 days×3 courses.
# [6] = rat, in vivo
# in vivo [7] = conditions: rat, po
# [8] = Sprague-Dawley (SD), iv, 1 mg/kg, Plasma Concentration of 100
# [9] = Sprague-Dawley (SD), po, 10 mg/kg
# [10] = Sprague-Dawley (SD), po, 10 mg/kg, Plasma Concentration of 100
structure (smiles),measurement,setting,value
"CN1CCN(C(=O)C2C3CCC(O3)C2C(=O)O)CC1 (stereo not drawn) [Compound 100, 3-(4-methylpiperazine-1-carbonyl)-7-oxa-bicyclo[2,2,1]-heptane-2-carboxylic acid]",concentration at 0.083 h,in vivo [1]; [8],0.646 µg/mL
same,concentration at 0.25 h,in vivo [1]; [8],0.345 µg/mL
same,concentration at 0.5 h,in vivo [1]; [8],0.308 µg/mL
same,concentration at 1 h,in vivo [1]; [8],0.257 µg/mL
same,concentration at 2 h,in vivo [1]; [8],0.125 µg/mL
same,concentration at 3 h,in vivo [1]; [8],0.0322 µg/mL
same,concentration at 5 h,in vivo [1]; [8],0.0102 µg/mL
same,AUC(0-t),in vivo [1]; [9],3.37 µg·h/mL
same,AUC(0-inf),in vivo [1]; [9],3.43 µg·h/mL
same,Cmax,in vivo [1]; [9],1.45 µg/mL
same,concentration at 0.5 h,in vivo [1]; [10],1.45 µg/mL
same,concentration at 1 h,in vivo [1]; [10],1.16 µg/mL
same,concentration at 2 h,in vivo [1]; [10],0.781 µg/mL
same,concentration at 9 h,in vivo [1]; [10],0.0313 µg/mL
same,Tmax,in vivo [1]; [9],40.2 min
same,AUC(0-t),"in vivo [1]; Sprague-Dawley, iv, 1 mg/kg",0.681 µg·h/mL
same,AUC(0-inf),"in vivo [1]; Sprague-Dawley, iv, 1 mg/kg",0.694 µg·h/mL
same,Cmax,"in vivo [1]; Sprague-Dawley, iv, 1 mg/kg",0.646 µg/mL
same,MRT,"in vivo [1]; Sprague-Dawley, iv, 1 mg/kg",69.6 min
same,half-life,"in vivo [1]; Sprague-Dawley, iv, 1 mg/kg",52.8 min
same,Tmax,"in vivo [1]; Sprague-Dawley, iv, 1 mg/kg",4.98 min
same,Cmax of 100,"in vivo [1]; Sprague-Dawley, po, 10 mg/kg",1.447 µg/mL
same,Tmax of 100,"in vivo [1]; Sprague-Dawley, po, 10 mg/kg",30 min
same,AUC(0-t),"in vivo [1]; Sprague-Dawley, po, 10 mg/kg",2.79 µg·h/mL
same,AUC(0-inf),"in vivo [1]; Sprague-Dawley, po, 10 mg/kg",2.86 µg·h/mL
same,Cmax,"in vivo [1]; Sprague-Dawley, po, 10 mg/kg",1.43 µg/mL
same,MRT,"in vivo [1]; Sprague-Dawley, po, 10 mg/kg",126 min
same,half-life,"in vivo [1]; Sprague-Dawley, po, 10 mg/kg",82.8 min
same,Tmax,"in vivo [1]; Sprague-Dawley, po, 10 mg/kg",30 min
same,inhibition of PP2A in circulating white blood cells,[2]; 100 slow iv 0.375 mg/kg,9%
same,inhibition of PP2A in circulating white blood cells,[2]; 100 slow iv 0.75 mg/kg,15%
same,inhibition of PP2A in circulating white blood cells,[2]; 100 slow iv 1.5 mg/kg,25%
same,stability in the presence of microsomes,[3],stable relative to verapamil
same,stability in the presence of microsomes,[4],stable relative to verapamil
same,stability in the presence of microsomes,[5],stable relative to verapamil
same,pIC50,human cancer cell lines,5.52 to 6.00
same,xenografts eliminated,U251 human GBM cells,60%
same,passage of the blood brain barrier (BBB) (statement),[6],does not readily pass the blood brain barrier
same,bioavailability,in vivo [7],1%
